10 molecules from patent US10787640B2, “Producing mesodermal cell types and methods of using the same” (The Board of Trustees of the Leland Stanford Junior …, priority 2015, dated 2020) can be followed below.

Holding throughout (type): cell-based, human
In test [1] the test system is day 3 early somite progenitors. The test can be described thus: Patterning of early somite progenitors into sclerotome or dermomyotome. The method, then:
Day 2 paraxial mesoderm was briefly washed (DMEM/F12) and further differentiated into day 3 early somite/somitomere precursors for 24 hours (1 μM A-83-01+250 nM LDN-193189+1 μM C59+500 nM PD0325901). Subsequently, day 3 early somites were dorsoventrally patterned into either ventral somites/sclerotome (5 nM 21K+1 μM C59) or dorsal somites/dermomyotome (3 μM CHIR99021+150 nM Vismodegib). Sclerotome induction was conducted for 48-72 hours (leading to day 5-6 ventral somite progenitors). […] Media was changed 24 hours for all steps. The Hedgehog agonist 21K, which has been previously described in, e.g., Brunton et al., 2009 the disclosure of which is incorporated herein by reference in its entirety, was commercially synthesized.
Day 3 early somites were briefly washed (DMEM/F12), treated with BMP4+CHIR99021+Vismodegib for 24 hours, washed again (DMEM/F12) and subsequently treated with CHIR99021 (3 μM)+21K (5 nM) for 24 hours. This day 5 dermomyotome was further empirically differentiated towards skeletal muscle-like progeny (using medium containing 2% horse serum, which has been previously described in, e.g., Xu et al. 2013, the disclosure of which is incorporated herein by reference in its entirety) for 12 days, yielding day 17 skeletal muscle-containing populations.
FIG. 11: A) To determine the length of time required for sclerotome differentiation, a qPCR timecourse was performed, encompassing undifferentiated hESCs (D0), day 2 hESC-derived paraxial mesoderm (D2 PXM), day 3 hESC-derived early somite progenitors, and hESC-derived day 3 early somite progenitors that were exposed to sclerotome inductive conditions (5 nM 21K+1 μM C59) for 24 or 48 hours. B) Description of EF1α-BCL2-T2A-GFP lentiviral construct (otherwise known as “C306”; top) and FACS plot of a stably-transduced polyclonal H9 hESC line with near-uniform expression of the BCL2-T2A-GFP transgene (green contour) by comparison to uncolored wild-type hESCs (bottom) (see above methods for details of derivation of the H9 BCL2-T2A-GFP hESC line). C) Higher-magnification picture of BCL2-T2A-GFP hESC-derived sclerotome ectopic bone grafts (originally described above in FIG. 4, panel E), showing that despite the near-ubiquitous expression of GFP throughout the ectopic bone graft (indicating its human provenance), the blood vessels are clearly GFP-negative and therefore presumably derived from the mouse host; scale bar=1 mm. […] L) Description of EF1a-BCL2-T2A-GFP lentiviral construct (otherwise known as “C306”; top) and FACS plot of a stably-transduced polyclonal H9 hESC line with near-uniform expression of the BCL2-T2A-GFP transgene (green contour) by comparison to uncolored wild-type hESCs (bottom) (see the methods described herein for details of derivation of the H9 BCL2-T2A-GFP hESC line). M) Description of UBC-Luciferase-T2A-tdTomato lentiviral construct (top); bioluminescent assay of cultured H9 UBC-Luciferase-T2A-tdTomato hESCs validates that these cells are luciferase-expressing in vitro (bottom).

Test [2] concerns hESC-derived cardiac mesoderm. Put plainly: Cardiac mesoderm differentiation into cardiovascular fates, qPCR. To be noted: BMP4 30 ng/mL+XAV939 1 μM with FGF2 or FGF receptor antagonists at 100 nM, 48 hours. How it is done:
Day 2 lateral mesoderm was differentiated into day 4 cardiac mesoderm by treating them with 1 μM A8301+30 ng/mL BMP4+1 μM C59+20 ng/mL FGF2 for 48 hrs, or alternatively, with 1 μM A8301+30 ng/mL BMP4+20 ng/mL FGF2 for 24 hrs followed by 25 ng/mL Activin+30 ng/mL BMP4+1 μM C59 for the next 24 hrs (schema in FIG. 5E; positive effect of mid-stage Activin shown in FIG. 12K). Subsequently, day 4 cardiac mesoderm was briefly washed (DMEM/F12) and treated with 30 ng/mL BMP4+1 μM XAV939+200 μg/mL 2-phospho-ascorbic acid (Sigma) for 48-96 hrs to yield day 6-8 cardiomyocyte-containing populations. Spontaneously contracting cardiomyocyte foci were evident from day 8 onwards.
C) To reveal the possible identity of non-cardiac mesoderm lineages that were contaminating cardiac mesoderm-containing cultures, NKX2.5-GFP hESCs were differentiated towards mid primitive streak (day 1) and were differentiated towards a heterogeneous population containing cardiac mesoderm (day 3) by treatment with SB-505124+BMP4+C59 (without FGF2) on days 2-3 of differentiation. FACS was performed on day 3 to purify either NKX2.5-GFP^+ or NKX2.5-GFP^− cells (top subpanels) which were sorted for qPCR (bottom subpanels). Gene expression was normalized to expression of a gene in the NKX2.5-GFP^+ fraction (dotted line). D) Timecourse of gene expression in hESCs differentiating towards mid primitive streak and lateral mesoderm, with treatment by SB-505124+BMP4+C59 on days 2-3 of differentiation. […] G) To assess whether a stabilized vitamin C analog (ascorbic acid-2-phosphate) (AA2P) enhanced cardiac mesoderm differentiation into cardiomyocytes, day 4 hESC-derived cardiac mesoderm was exposed to BMP4 (30 ng/mL)+XAV939 (1 μM) for 48 hours in the presence or absence of 200 μg/mL AA2P and qPCR was conducted of day 6 populations; qPCR data were normalized such that expression values in the highest-expressing sample was normalized=1.0. […] J) In the mouse embryo, endocardium (progenitors to heart-affiliated endothelium) are marked by transient coexpression of pan-heart marker Nkx2.5 together with endothelial markers (Ferdous et al., 2009; Stanley et al., 2002).
On the technique in general: In qPCR the cycle at which signal appears reflects the starting amount.

Test [3] has as its system day 5 hematopoietic intermediates. The test can be described thus: Day 5-7 continued differentiation of hematopoietic intermediates, factor withholding. As to conditions: for GFI1B expression: individually withholding the factor from the 8 factors, 48 hours. How it is done:
SOX17^mCherry/+ H9 hESCs (referred to as SOX17-mCherry hESCs throughout this study) were routinely propagated in mTeSR1 (StemCell Technologies)+1% penicillin/streptomycin. They were passaged ˜1:12-1:25 as fine clumps using Accutase (Gibco) onto plates precoated with a Geltrex substratum (Gibco) in mTeSR1 medium supplemented with thiazovivin ([…]; a ROCK inhibitor). After overnight plating, hESCs were washed (DMEM/F12) and differentiated towards posterior PS using BMP4 (15-40 ng/mL, R&D Systems), CHIR99021 ([…]), FGF2 (20 ng/mL, Invitrogen) and PIK90 (100 nM, Calbiochem) for 24 hours, with the optional inclusion of Activin (30 ng/mL, R&D Systems) to induce mid PS. Day 1 mid or posterior PS was subsequently washed (DMEM/F12) and further differentiated using BMP4 (40 ng/mL), GDC-0941 (0.25-2.5 μM, Cellagen Technology), Forskolin (10 μM, Tocris), SB-505124 ([…]), VEGF (100 ng/mL, R&D Systems), XAV939 (1 μM, Tocris) and ascorbic acid-2-phosphate (200 μg/mL, Sigma) for 24 hours. Day 2 cultures were further directed into the definitive hematopoietic lineage/hemogenic precursors by Activin A (15 ng/mL), GDC-0941 (0.25-2.5 μM), VEGF (100 ng/mL), XAV939 (1 μM) and ascorbic acid-2-phosphate (200 μg/mL) for 24 hours. Day 3 definitive hematopoietic progenitors were subsequently differentiated into early Runx1^lowGfi1^low hemogenic intermediates through day 4-5 treatment with BMP4 (50 ng/mL), TTNPB (500 nM), VEGF (100 ng/mL) and XAV939 (1 μM) for 48 hours, supplemented with SB-505124 (2 μM) on day 5. Day 5 populations were then dissociated into single cells, counted and reaggregated in individual wells of a low-adhesion V-bottom or U-bottom 96-well plate (e.g., Thermo Fisher, catalog no. 249952) with ˜15,000-20,000 cells seeded per well. Aggregates were cultured for 48 additional hours until day 7 in BMP4 (50 ng/mL), TTNPB (500 nM), VEGF (100 ng/mL), XAV939 (1 μM), SB-505124 (2 μM), SCF (25-50 ng/mL, R&D Systems), IL6 (10 ng/mL, R&D Systems) and IL6RA (250-1000 ng/mL, R&D Systems). All differentiation was conducted in serum-free CDM2 fully-defined basal media.

With `CN[C@H]1CC[C@H](N(Cc2ccc(OC)c(-c3ccncc3)c2)C(=O)c2sc3c(F)ccc(F)c3c2Cl)CC1` [21K, 3-chloro-4,7-difluoro-N-(4-methoxy-3-(pyridin-4-yl)benzyl)-N-((1r,4r)-4-(methylamino)cyclohexyl)benzo[b]thiophene-2-carboxamide], the sclerotome fate induction result in test [1] (21K with C59, 2-3 days) was “efficiently induced the sclerotome fate”. The EN1 induction result in test [1] (later stage CHIR99021+21K 5 nM, 24-48 hours) is recorded as “important to induce EN1”.
As for `CCN1CCN(c2ccc(Nc3cc(N(C)C(=O)Nc4c(Cl)c(OC)cc(OC)c4Cl)ncn3)cc2)CC1` [BGJ398], the cardiovascular fate promoted result in test [2] is given as “promoted (pro)epicardium”.
Same read-out and setting: under `CCN(CC)CCCCNc1ncc2cc(-c3cc(OC)cc(OC)c3)c(NC(=O)NC(C)(C)C)nc2n1` [PD173074, N-[2-[[4-(Diethylamino)butyl]amino]-6-(3,5-dimethoxyphenyl)pyrido[2,3-d]pyrimidin-7-yl]-N′-(1,1-dimethylethyl)urea] stands “promoted (pro)epicardium”.
In the case of `CS(=O)(=O)c1ccc(C(=O)Nc2ccc(Cl)c(-c3ccccn3)c2)c(Cl)c1` [Vismodegib], the “dorsal somite marker PAX3 and sclerotome fate” value in test [1] (CHIR together with Vismodegib) is given as “sustained dorsal somite marker PAX3 while inhibiting the sclerotome fate”.
Take AZD4547: the cardiovascular fate promoted result in test [2] is “promoted (pro)epicardium”.
Regarding FGF2: FGF agonist, FGF family ligand, in test [2], the cardiovascular fate promoted result is listed as “promoted endocardium”.
Turning to IL6: IL6 ligand, the GFI1B expression result in test [3] is given as “strongly diminished”.
In the case of “SCF: SCF protein signaling through the KIT receptor”, the GFI1B expression result in test [3] is “strongly diminished”.
Take VEGF: the GFI1B expression result in test [3] was “did not markedly impair GFI1B expression”. Further, the “vein marker NR2F2 expression” value in test [3] (withholding the factor) is reported as “increased expression of the vein marker NR2F2”.

B1: IL6RA: soluble IL6 receptor ectodomain (protein)
chain: LAPRRCPAQEVARGVLTSLPGDSVTLTCPGVEPEDNATVHWVLRKPAAGSHPSRWAGMGRRLLLRSVQLHDSGNYSCYRAGRPAGTVHLLVDVPPEEPQLSCFRKSPLSNVVCEWGPRSTPSLTTKAVLLVRKFQNSPAEDFQEPCQYSQESQKFSCQLAVPEGDSSFYIVSMCVASSVGSKFSKTQTFQGCGILQPDPPANITVTAVARNPRWLSVTWQDPHSWNSSFYRLRFELRYRAERSKTFTTWMVKDLQHHCVIHDAWSGLRHVVQLRAQEEFGQGEWSEWSPEAMGTPWTESRSPPAENEVSTPMQALTTNKDDDNILFRDSANATSLPVQDSSSVPLP
For the molecule B1, the GFI1B expression entry in test [3] is “strongly diminished”.
